Measurements reported in ChEMBL document CHEMBL4765455, “Design, synthesis, and biological evaluations of novel 3-amino-4-ethynyl indazole derivatives as Bcr-Abl kinase inhibitors with potent cellular antileukemic activity” (Eur J Med Chem, 2020).

Tests used:
[1] = target: Serine/threonine-protein kinase pim-1 (Homo sapiens) (UniProt P11309); experiment: Inhibition of PIM1 (unknown origin) at 1 uM relative to control
[2] = target: Macrophage colony-stimulating factor 1 receptor (Homo sapiens, UniProt P07333); experiment: Inhibition of FMS (unknown origin) in presence of ATP
[3] = target: T1, Proto-oncogene tyrosine-protein kinase Src (Homo sapiens, UniProt P12931); experiment: Inhibition of c-Src (unknown origin) in presence of ATP
T1 sequence (P12931 2-536 limits assumed): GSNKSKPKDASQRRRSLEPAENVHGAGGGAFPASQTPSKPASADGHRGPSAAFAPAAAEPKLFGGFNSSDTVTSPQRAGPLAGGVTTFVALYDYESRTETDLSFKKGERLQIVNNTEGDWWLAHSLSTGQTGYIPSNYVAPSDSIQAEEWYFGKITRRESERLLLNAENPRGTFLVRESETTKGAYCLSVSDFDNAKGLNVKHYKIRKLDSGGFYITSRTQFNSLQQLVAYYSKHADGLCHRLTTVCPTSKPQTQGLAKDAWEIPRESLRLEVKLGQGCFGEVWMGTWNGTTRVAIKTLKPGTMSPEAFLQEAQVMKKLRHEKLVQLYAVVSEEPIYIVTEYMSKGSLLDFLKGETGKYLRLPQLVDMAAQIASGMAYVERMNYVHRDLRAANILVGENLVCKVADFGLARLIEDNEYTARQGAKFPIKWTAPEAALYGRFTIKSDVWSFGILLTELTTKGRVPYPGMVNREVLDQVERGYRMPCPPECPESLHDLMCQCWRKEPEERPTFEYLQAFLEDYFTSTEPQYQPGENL

K562 [4] = experiment: Antiproliferative activity against human K562 cells assessed as cell growth inhibition incubated for 72 hrs by MTT assay; format: functional
[5] = target: Serine/threonine-protein kinase PLK1 (Homo sapiens) (UniProt P53350); experiment: Inhibition of PLK1 (unknown origin) at 1 uM relative to control
CCRF-CEM [6] = experiment: Antiproliferative activity against human CCRF-CEM cells assessed as cell growth inhibition measured after 48 hrs by SRB assay; format: functional
SR [7] = experiment: Antiproliferative activity against human SR cells assessed as cell growth inhibition at 10 uM measured after 48 hrs by SRB assay relative to control; format: functional; conditions: read-out: GI
[8] = target: High affinity nerve growth factor receptor (Homo sapiens) (UniProt P04629); experiment: Inhibition of TRKA (unknown origin) at 1 uM relative to control
[9] = target: Proto-oncogene tyrosine-protein kinase ROS (Homo sapiens) (UniProt P08922); experiment: Inhibition of ROS/ROS1 (unknown origin) at 1 uM relative to control
Proto-oncogene tyrosine-protein kinase ROS (Homo sapiens), sequence (P08922 whole entry): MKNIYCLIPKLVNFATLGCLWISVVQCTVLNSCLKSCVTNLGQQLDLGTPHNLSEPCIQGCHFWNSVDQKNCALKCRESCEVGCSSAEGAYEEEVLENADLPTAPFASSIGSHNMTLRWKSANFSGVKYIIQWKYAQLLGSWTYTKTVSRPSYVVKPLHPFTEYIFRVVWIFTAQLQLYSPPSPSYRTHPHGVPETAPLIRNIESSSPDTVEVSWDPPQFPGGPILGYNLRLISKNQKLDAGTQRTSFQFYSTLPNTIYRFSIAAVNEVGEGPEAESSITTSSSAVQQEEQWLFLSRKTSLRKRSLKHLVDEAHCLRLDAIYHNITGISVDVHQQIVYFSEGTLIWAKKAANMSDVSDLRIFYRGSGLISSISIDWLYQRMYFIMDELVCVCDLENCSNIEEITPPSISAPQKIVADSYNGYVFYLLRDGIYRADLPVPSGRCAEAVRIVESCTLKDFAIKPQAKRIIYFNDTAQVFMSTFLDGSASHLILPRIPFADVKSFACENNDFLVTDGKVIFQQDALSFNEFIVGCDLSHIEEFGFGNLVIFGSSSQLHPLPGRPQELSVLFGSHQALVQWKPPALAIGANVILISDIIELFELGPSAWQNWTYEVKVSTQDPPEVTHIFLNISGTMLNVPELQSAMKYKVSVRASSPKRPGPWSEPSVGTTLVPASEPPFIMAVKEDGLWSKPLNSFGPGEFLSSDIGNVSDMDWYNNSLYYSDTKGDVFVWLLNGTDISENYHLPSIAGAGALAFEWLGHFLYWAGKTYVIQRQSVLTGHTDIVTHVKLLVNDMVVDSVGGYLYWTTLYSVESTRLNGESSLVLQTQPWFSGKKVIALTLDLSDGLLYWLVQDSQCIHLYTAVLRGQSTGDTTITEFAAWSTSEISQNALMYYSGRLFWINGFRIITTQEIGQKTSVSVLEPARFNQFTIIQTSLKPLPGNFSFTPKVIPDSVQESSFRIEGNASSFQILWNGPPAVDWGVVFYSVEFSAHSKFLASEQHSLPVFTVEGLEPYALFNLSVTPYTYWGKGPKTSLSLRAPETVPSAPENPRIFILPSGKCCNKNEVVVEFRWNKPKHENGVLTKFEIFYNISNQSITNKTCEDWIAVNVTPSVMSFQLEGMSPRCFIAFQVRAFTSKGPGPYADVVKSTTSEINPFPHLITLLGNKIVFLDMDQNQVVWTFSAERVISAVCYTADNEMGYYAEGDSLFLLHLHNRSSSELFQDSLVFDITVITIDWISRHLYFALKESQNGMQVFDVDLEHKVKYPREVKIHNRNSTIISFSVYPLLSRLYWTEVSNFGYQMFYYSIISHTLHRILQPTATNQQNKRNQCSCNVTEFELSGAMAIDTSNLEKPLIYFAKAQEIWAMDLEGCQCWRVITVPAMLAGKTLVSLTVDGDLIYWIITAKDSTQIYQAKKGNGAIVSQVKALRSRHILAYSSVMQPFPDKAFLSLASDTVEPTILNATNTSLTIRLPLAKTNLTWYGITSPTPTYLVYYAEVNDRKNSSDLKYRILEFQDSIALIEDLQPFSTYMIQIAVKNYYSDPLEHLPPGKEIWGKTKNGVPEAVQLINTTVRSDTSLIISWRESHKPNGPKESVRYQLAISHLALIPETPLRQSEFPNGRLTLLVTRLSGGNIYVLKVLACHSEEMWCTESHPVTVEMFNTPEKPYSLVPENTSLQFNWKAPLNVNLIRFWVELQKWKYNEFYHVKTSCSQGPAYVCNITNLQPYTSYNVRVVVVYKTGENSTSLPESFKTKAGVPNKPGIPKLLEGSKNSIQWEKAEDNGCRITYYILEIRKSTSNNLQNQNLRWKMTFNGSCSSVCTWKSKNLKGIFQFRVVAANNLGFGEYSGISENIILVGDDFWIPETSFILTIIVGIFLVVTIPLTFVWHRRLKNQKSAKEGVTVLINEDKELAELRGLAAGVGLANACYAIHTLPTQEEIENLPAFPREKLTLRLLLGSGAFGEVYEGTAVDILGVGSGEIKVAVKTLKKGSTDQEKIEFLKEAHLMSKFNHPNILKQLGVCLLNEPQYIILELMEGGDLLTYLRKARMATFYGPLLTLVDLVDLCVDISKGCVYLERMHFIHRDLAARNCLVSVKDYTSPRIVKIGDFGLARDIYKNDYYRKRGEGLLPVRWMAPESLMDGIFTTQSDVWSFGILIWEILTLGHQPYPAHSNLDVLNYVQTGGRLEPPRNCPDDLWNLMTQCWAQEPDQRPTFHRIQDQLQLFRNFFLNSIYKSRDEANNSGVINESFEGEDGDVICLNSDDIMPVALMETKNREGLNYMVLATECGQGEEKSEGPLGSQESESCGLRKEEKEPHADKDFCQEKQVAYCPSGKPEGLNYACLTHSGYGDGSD

[10] = target: Hepatocyte growth factor receptor (Homo sapiens) (UniProt P08581); experiment: Inhibition of c-MET (unknown origin) at 1 uM relative to control
HL-60(TB) [11] = experiment: Antiproliferative activity against human HL-60(TB) cells assessed as cell growth inhibition measured after 48 hrs by SRB assay; format: functional
[12] = Antiproliferative activity against human L132 cells assessed as cell growth inhibition incubated for 72 hrs by MTT assay; format: cell-based
[13] = target: Rho-associated protein kinase 1 (Homo sapiens) (UniProt Q13464); experiment: Inhibition of ROCK1 (unknown origin) at 1 uM relative to control
Bcr/Abl fusion protein [14] = target: Bcr/Abl fusion protein (Homo sapiens, UniProt P00519, T315I); experiment: Inhibition of BCR-ABL T315I mutant (unknown origin) incubated for 40 mins in presence of [gamma33P]ATP by scintillation method; format: protein assay
HL-60(TB) [15] = experiment: Antiproliferative activity against human HL-60(TB) cells assessed as cell growth inhibition at 10 uM measured after 48 hrs by SRB assay relative to control; format: functional; conditions: read-out: GI
[16] = Oral bioavailability in ICR mouse at 10 mg/kg measured up to 8 hrs by LC-MS/MS analysis; format: ADME, organism-based; conditions: in vivo
[17] = target: Focal adhesion kinase 1 (Homo sapiens) (UniProt Q05397); experiment: Inhibition of FAK/PTK2 (unknown origin) at 1 uM relative to control
[18] = target: T2, Serine/threonine-protein kinase B-raf (Homo sapiens, UniProt P15056); experiment: Inhibition of BRAF (unknown origin) in presence of ATP
T2 sequence (P15056 whole entry): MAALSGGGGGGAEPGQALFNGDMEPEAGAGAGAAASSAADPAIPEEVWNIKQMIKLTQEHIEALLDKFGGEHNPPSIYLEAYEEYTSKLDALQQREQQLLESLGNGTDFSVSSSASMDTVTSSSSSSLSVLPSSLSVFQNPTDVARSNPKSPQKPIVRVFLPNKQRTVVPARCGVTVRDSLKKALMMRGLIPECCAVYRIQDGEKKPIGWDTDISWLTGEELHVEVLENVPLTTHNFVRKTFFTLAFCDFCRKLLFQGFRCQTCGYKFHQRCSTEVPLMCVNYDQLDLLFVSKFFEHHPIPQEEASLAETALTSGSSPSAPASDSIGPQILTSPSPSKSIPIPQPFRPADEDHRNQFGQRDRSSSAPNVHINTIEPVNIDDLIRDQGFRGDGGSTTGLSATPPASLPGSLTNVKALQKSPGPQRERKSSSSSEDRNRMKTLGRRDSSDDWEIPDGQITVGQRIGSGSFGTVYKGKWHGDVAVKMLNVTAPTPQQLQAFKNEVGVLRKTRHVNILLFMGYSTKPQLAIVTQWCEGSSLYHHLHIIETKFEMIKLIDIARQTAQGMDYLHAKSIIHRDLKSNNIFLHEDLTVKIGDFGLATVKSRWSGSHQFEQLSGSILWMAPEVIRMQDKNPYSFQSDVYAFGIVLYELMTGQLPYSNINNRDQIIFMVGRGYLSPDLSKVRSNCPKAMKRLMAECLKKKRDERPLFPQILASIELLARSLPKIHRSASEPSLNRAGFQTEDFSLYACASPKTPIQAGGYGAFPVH

MOLT-4 = experiment: Antiproliferative activity against human MOLT-4 cells assessed as cell growth inhibition at 10 uM measured after 48 hrs by SRB assay relative to control; format: functional; conditions: read-out: GI
Homo sapiens [19] = species: Homo sapiens; experiment: Selectivity index, ratio of IC50 for human ERG to EC50 for ABL1 (unknown origin) expressed in human HEK293 cells; format: cell-based
Bcr/Abl fusion protein [20] = target: Bcr/Abl fusion protein (Homo sapiens, UniProt P00519); experiment: Inhibition of wild type BCR-ABL (unknown origin) incubated for 40 mins in presence of [gamma33P]ATP by scintillation method; format: protein assay
[21] = AUClast in ICR mouse at 5 mg/kg, iv measured up to 8 hrs by LC-MS/MS analysis; format: ADME, organism-based; set-up: route intravenous, dose 5 mg/kg, time <=8; conditions: in vivo
[22] = target: Aurora kinase A (Homo sapiens) (UniProt O14965); experiment: Inhibition of Aurora A (unknown origin) at 1 uM relative to control
[23] = target: Receptor-type tyrosine-protein kinase FLT3 (Homo sapiens) (UniProt P36888); experiment: Inhibition of FLT3 (unknown origin) at 1 uM relative to control
Receptor-type tyrosine-protein kinase FLT3 (Homo sapiens), sequence (P36888 whole entry): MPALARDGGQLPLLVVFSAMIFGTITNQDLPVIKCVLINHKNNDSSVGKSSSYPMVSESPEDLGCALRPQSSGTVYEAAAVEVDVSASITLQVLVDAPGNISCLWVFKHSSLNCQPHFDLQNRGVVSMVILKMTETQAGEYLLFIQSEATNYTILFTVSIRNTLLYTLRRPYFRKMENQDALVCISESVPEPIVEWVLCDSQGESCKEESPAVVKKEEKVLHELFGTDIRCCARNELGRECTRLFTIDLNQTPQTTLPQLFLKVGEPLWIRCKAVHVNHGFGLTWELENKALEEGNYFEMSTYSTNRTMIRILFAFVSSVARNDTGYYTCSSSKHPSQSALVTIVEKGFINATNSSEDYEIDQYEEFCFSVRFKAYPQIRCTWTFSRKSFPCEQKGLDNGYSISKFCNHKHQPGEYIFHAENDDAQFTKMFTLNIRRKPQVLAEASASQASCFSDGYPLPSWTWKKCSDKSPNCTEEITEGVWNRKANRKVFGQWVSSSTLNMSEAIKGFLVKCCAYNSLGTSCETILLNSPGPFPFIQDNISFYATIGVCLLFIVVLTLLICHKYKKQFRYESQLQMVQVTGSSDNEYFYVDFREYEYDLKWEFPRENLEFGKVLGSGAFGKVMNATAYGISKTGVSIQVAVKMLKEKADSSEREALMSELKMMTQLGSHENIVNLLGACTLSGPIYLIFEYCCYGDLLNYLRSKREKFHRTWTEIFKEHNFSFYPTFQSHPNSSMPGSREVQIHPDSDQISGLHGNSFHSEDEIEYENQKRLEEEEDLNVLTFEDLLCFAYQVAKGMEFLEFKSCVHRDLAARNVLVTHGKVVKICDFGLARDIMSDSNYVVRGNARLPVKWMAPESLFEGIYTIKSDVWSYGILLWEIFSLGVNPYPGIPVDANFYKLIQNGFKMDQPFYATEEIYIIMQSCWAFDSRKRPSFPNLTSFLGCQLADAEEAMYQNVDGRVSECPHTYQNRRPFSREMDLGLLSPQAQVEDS

[24] = target: Receptor-type tyrosine-protein kinase FLT3 (Homo sapiens, UniProt P36888); experiment: Inhibition of FLT3 (unknown origin) in presence of ATP
Receptor-type tyrosine-protein kinase FLT3, sequence (P36888 whole entry): as above

[25] = target: T1, Proto-oncogene tyrosine-protein kinase Src; experiment: Inhibition of c-Src (unknown origin) at 1 uM relative to control
[26] = target: Cyclin-dependent kinase 4/cyclin D1 (Homo sapiens) (UniProt P11802+P24385); experiment: Inhibition of CDK4/cyclinD1 (unknown origin) at 1 uM relative to control; format: protein-complex assay
[27] = target: Serine/threonine-protein kinase Chk1 (Homo sapiens) (UniProt O14757); experiment: Inhibition of CHK1 (unknown origin) at 1 uM relative to control
[28] = Selectivity index, ratio of GI50 for human HL60(TB) cells to GI50 for human K562 cells; format: functional
K562 [29] = experiment: Antiproliferative activity against human K562 cells assessed as cell growth inhibition at 10 uM measured after 48 hrs by SRB assay relative to control; format: functional; conditions: read-out: GI
Homo sapiens [30] = species: Homo sapiens; experiment: Selectivity index, ratio of IC50 for c-Src (unknown origin) to IC50 for Bcr-Abl (unknown origin)
Homo sapiens [31] = species: Homo sapiens; experiment: Potency index, ratio of test compound IC50 to E4031 IC50 for human […]
[32] = Clearance in ICR mouse at 5 mg/kg, iv measured up to 8 hrs by LC-MS/MS analysis; format: ADME, organism-based; conditions: in vivo
[33] = target: T2, Serine/threonine-protein kinase B-raf; experiment: Inhibition of BRAF (unknown origin) at 1 uM relative to control
[34] = target: Voltage-gated inwardly rectifying potassium channel KCNH2 (Homo sapiens, UniProt Q12809); experiment: Inhibition of human ERG incubated for 4 hrs by competitive fluorescence tracer binding based assay
[35] = Tmax in ICR mouse at 10 mg/kg, po measured up to 8 hrs by LC-MS/MS analysis; format: ADME, organism-based; conditions: in vivo
[36] = AUClast in ICR mouse at 10 mg/kg, po measured up to 8 hrs by LC-MS/MS analysis; format: ADME, organism-based; set-up: route oral, dose 10 mg/kg, time <=8; conditions: in vivo
[37] = Half life in ICR mouse at 5 mg/kg, iv measured up to 8 hrs by LC-MS/MS analysis; format: ADME, organism-based; conditions: in vivo
CCRF-CEM [38] = experiment: Antiproliferative activity against human CCRF-CEM cells assessed as cell growth inhibition at 10 uM measured after 48 hrs by SRB assay relative to control; format: functional; conditions: read-out: GI
SR [39] = experiment: Antiproliferative activity against human SR cells assessed as cell growth inhibition measured after 48 hrs by SRB assay; format: functional
[40] = target: Dual specificity mitogen-activated protein kinase kinase 1 (Homo sapiens) (UniProt Q02750); experiment: Inhibition of MEK1 (unknown origin) at 1 uM relative to control
Dual specificity mitogen-activated protein kinase kinase 1 (Homo sapiens), sequence (Q02750 whole entry): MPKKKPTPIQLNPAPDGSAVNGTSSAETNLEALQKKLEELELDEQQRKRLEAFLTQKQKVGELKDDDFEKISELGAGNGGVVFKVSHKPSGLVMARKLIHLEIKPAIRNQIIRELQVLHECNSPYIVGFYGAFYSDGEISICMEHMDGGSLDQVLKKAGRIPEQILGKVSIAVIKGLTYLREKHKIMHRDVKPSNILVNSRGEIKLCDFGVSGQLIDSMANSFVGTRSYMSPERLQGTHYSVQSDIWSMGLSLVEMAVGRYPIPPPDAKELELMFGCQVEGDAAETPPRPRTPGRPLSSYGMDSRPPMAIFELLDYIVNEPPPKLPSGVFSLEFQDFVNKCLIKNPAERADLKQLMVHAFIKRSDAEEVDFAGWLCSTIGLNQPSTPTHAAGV

[41] = target: Epidermal growth factor receptor (Homo sapiens) (UniProt P00533); experiment: Inhibition of EGFR (unknown origin) at 1 uM relative to control
[42] = target: Tyrosine-protein kinase SYK (Homo sapiens) (UniProt P43405); experiment: Inhibition of SYK (unknown origin) at 1 uM relative to control

Nc1n[nH]c2cccc(C#Cc3cccc(NC(=O)c4ccc(N5CCOCC5)c(C(F)(F)F)c4)c3)c12
inhibition [1]: < 30%
IC50 [2]: 0.0162 µM
IC50 [3]: 0.066 µM
GI50 (K562 [4]): 0.02 µM
inhibition [5]: < 30%
GI50 (CCRF-CEM [6]): 1.36 µM
inhibition of growth at 10 µM (SR [7]): 87.4%
inhibition [8]: < 30%
inhibition [9]: < 30%
inhibition [10]: 43.4%
GI50 (HL-60(TB) [11]): 1.4 µM
GI50 at 72 h [12]: 9.27 µM
inhibition [13]: < 30%
IC50 (Bcr/Abl fusion protein [14]): 0.227 µM
inhibition of growth at 10 µM (HL-60(TB) [15]): 98%
bioavailability [16]: 0.6%
inhibition [17]: < 30%
IC50 [18]: 0.122 µM
inhibition of growth at 10 µM (MOLT-4): 92.3%
Ratio IC50/EC50 (Homo sapiens [19]): 233
IC50 (Bcr/Abl fusion protein [20]): 0.0046 µM
AUC(0-t) at 8 h [21]: 14000 ng·h/mL
inhibition [22]: 43.4%
inhibition [23]: 87.8%
IC50 [24]: 0.535 µM
inhibition [25]: 87.8%
inhibition [26]: < 30%
inhibition [27]: < 30%
RatioGI50 [28]: 140
inhibition of growth at 10 µM (K562 [29]): 99%
Ratio IC50 (Homo sapiens [30]): 14.3
Ratio IC50 (Homo sapiens [31]): 310
clearance [32]: 5 mL/min/kg
inhibition [33]: 87.8%
IC50 [34]: 3.4 µM
Tmax [35]: 0.6 h
AUC(0-t) at 8 h [36]: 175 ng·h/mL
half-life [37]: 3.5 h
inhibition of growth at 10 µM (CCRF-CEM [38]): 89.5%
GI50 (SR [39]): 2.4 µM
inhibition [40]: < 30%
inhibition [41]: 43.4%
inhibition [42]: < 30%
